Measurements from patent EP4755393A1, “USE OF PROTON PUMP REGULATOR IN PREPARATION OF DRUG” (Shanghai Quietd Biotechnology Co., Ltd., priority 2023, dated 2025).
Entries after “also recorded” stand apart in the source; their conditions may differ. Ends that are not written are not given here.

How the values were obtained:
APP/PS1 transgenic mice = test: Morris water maze test in AD mice; type: in vivo; conditions: continuously for 1 week
DIR protein = test: Co-immunoprecipitation of QD202-Biotin peptide with Flag-His-DIR (HEK 293 lysate, western blot and dot blot); type: binding, human; conditions: QD202-Biotin peptide added to lysate of Flag-His-DIR transfected HEK 293; anti-Biotin IP; FIG. 14
Protocol: The Flag-His-DIR expression plasmid was transfected into HEK 293, and cell proteins were extracted 48 h after transfection. Table 2: Plasmid sequences
Protein extraction was performed using Pierce RIPA lysis buffer, 1000 µL of Pierce RIPA lysis buffer containing protease inhibitors was added. Cells were collected and transferred to a clean 1.5 mL EP tube using a cell scraper. After mixing for 1 h on a rotary mixer at 4°C, the cells were centrifuged at 13,000 rpm at 4°C for 10 min to remove cell debris. The supernatant of the cell lysate was divided into two aliquots, each 500 µL, and 10 µL of QD202-Biotin peptide at a concentration of 1 mM was added to one aliquot. From each of the two aliquots, 30 µL of the supernatant was taken and mixed with 10 µL of 4× loading buffer. The mixture was boiled at 100°C for 5 min and then stored frozen at -20°C. For the remaining 470 µL of protein lysate, 2 µL of the antibody (Anti-Biotin, Vector, sp-3000) was added; the mixture was incubated overnight (about 16-18 h) on a rotary shaker at 4°C. 30 µL of Protein G Sepharose beads (Roche, 11243233001) were placed in an EP tube and washed three times with Pierce RIPA lysis buffer. […] The protein was detected by Western blot and dot blot methods (DYKDDDDK-Tag (3B9) mAb, Abmart, M20008; Anti-Biotin, Vector, sp-3000).

homozygous DIR-Ki mice = test: Novel object recognition test in DIR-Ki mice; type: in vivo; conditions: intravenous, 7 consecutive days, FIG. 15
Protocol: Thirty homozygous DIR-Ki mice were divided into three groups: the control group (HO+PBS), the QD202 1 mg/kg group (HO+QD202 1 mpk), and the QD202 5 mg/kg group (HO+QD202 5 mpk). After 7 consecutive days of intravenous administration in the QD202-treated groups, the novel object recognition test was initiated.
Square PVC plastic box (dimensions: 25 cm × 25 cm × 30 cm), two identical size 1 batteries, one plastic toy of the same height as the batteries, experimental observation box, camera, and video recording software
On the day of the experiment, the mice were allowed to acclimatize to the experimental room for 30 min in advance. The test was divided into an acclimation period and a testing period.
Familiarization phase: Two identical batteries were placed 5 cm away from a box wall, with a 5 cm gap between the two batteries. The mice were placed in the center of the area and allowed to explore freely for 10 min. […]
Testing period: A toy with size and height similar to those of the battery was randomly used to replace one battery and placed in the same position as the original battery. […] The entire process was recorded using a camera. […] After the experiment, the time taken for the mice to explore novel and familiar objects in the video was counted manually, and the time recognition index of the novel objects was calculated. […]

Male SD rats = conditions: rat, in vivo
HT22 cells = test: Quantitative detection of ROS (DCFH-DA) in the oxygen-glucose deprivation (OGD) cell model; type: cell-based, Mouse; conditions: OGD 16 h, 24 h reoxygenation, OGD plus vehicle = 100%, mean ± standard deviation
Protocol: Cell culture: Mouse hippocampal HT22 cells were cultured in DMEM and 10% serum at 37°C in a 5% CO2 incubator.
Oxygen-glucose deprivation (OGD) cell model: HT22 cells were seeded at a density of about 1 ×10^5 into 96-well plates and cultured for 24 h in a 37°C incubator with 5% CO2/95% air in DMEM and 10% serum. After placing HT22 cells in glucose-free medium, they were transferred to a sealed container containing a 5% CO2/95% N2 mixture and incubated at 37°C for 16 h. The glucose-free medium was then replaced with a normal medium containing glucose, and the mixture was incubated for 24 h in a 37°C incubator containing 5% CO2/95% air for reoxygenation.
Experimental grouping: Normally cultured HT22 cells were used as the control group. HT22 cells subjected to OGD were reoxygenated in normal culture medium and treated separately with vehicle, QD202 (0.1 µM, 1 µM, 5 µM), and the ROS scavenger edaravone (200 µM). After 24 h of reoxygenation, quantitative detection of ROS was performed.
Quantitative detection of ROS: Reactive oxygen species were detected using the Beyotime reactive oxygen species detection kit and the fluorescent probe DCFH-DA. DCFH-DA was diluted 1:1000 with serum-free culture medium to a final concentration of 10 µM. The culture medium was removed and the diluted DCFH-DA was added. The cells were then incubated in a 37°C cell culture incubator for 20 min. The cells were washed three times with serum-free cell culture medium to thoroughly remove any DCFH-DA that had not entered the cells. Observation was performed under a fluorescence microscope, followed by quantification of the average fluorescence intensity using Image J software.
Data analysis: Three parallel experiments were performed. The average fluorescence intensity of the OGD plus vehicle group was set as the standard value of 100% for normalization of the fluorescence intensity of cells in each group. Data were expressed as mean ± standard deviation, and […] tests were performed on the data of each group using One-Way ANOVA.

QD202: Polypeptide synthesized according to the amino acid sequence set forth in SEQ ID NO: 1; ATP6V1B2 regulator / DIR regulator (YGRKKRRQRRRSPVDVVCS; not fully specified)
learning and cognitive functions in the water maze behavior (APP/PS1 transgenic mice; intragastric, 6.25 mg/kg, ten-month-old APP/PS1 mice, FIG. 10): obvious improvement of learning and cognitive functions
learning and cognitive functions in water maze behavior (APP/PS1 transgenic mice; intravenous injection, 1.25 mg/kg, APP/PS1 mice of 10 months old, FIG. 12): obvious improvement on learning and cognitive functions
binding to the DIR protein (co-immunoprecipitation) (DIR protein): can bind
novel object recognition index (homozygous DIR-Ki mice; 1.0 mg/kg): significantly improved
novel object recognition index (homozygous DIR-Ki mice; 5.0 mg/kg): significantly improved
neurobehavioral score (Male SD rats): lower than that of the Model + QD202 placebo group with a statistical difference (p<0.05); also recorded: lower than that of the Model + QD202 placebo group with extremely significant statistical differences (p<0.001)
inhibition rate of ROS (HT22 cells; 0.1 µM): 17.55±12.95%
inhibition rate of ROS (HT22 cells; 1 µM): 60.63±8.27%
inhibition rate of ROS (HT22 cells; 5 µM): 70.09±2.84%
